Patent US20150125397A1, “DUAL SPECIFIC BINDING PROTEINS DIRECTED AGAINST IMMUNE CELL RECEPTORS AND AUTOANTIGENS” (ABBVIE INC., priority 2013, published 2015)

Experiments:
Assay type in all cases: cell-based, mouse
[1] = test system: Primary murine B cells; experiment: CFSE dilution / Sytox Blue FACS of primary murine B cells; details: 72 hours; absence of BLyS; FIG. 3
Method: Primary murine B cells were purified by positive selection as described above. For cultures >48 hours old, proliferation was quantified by carboxyfluorescein diacetate, succinimidyl ester (CFSE) dilution and cell death by TO-PRO-3 binding. To label the cells with CFSE, the cells were first washed 2 times with PBS. Next, the stock of CFSE was diluted to 10 μM in PBS and the cells were brought to 1×10^7 cells/ml. The cells were mixed at a 1:1 ratio with 10 μM CFSE and mixed gently for 2 minutes. The CFSE labeling reaction was stopped by adding heat inactivated fetal calf serum equal in volume to the starting volume for the cell suspension. […] Proliferation was measured by fluorophore dilution at 60-72 hours by flow cytometry. […]
Primary murine B cells were labeled and prepared as in Example 2.7 and stimulated with either media alone, […] of TLR9 ligand CpG oligodeoxynucleotide (ODN) 1826, […] of the mouse anti-chromatin autoantibody PL2-3 or […] DVD3759 in the presence or absence of […] of the B cell survival factor BLyS. After 72 hours, cells were stained with 1 μM of the cell permeable DNA stain Sytox Blue and analyzed by fluorescence activated cell sorting (FACS). Cell division was determined by dilution of CFSE and dead cells were identified by staining with Sytox Blue.

[2] = test system: Dnase2−/− Ifnar1−/− DKO B cells; experiment: 3H-thymidine incorporation of B220-purified B cells, DKO; details: 24 hours, FIG. 10C
From the text: (§1) Mice: RF and Tlr-9^−/− mice have been described previously (Uccellini et al. (2008) J. Immunol. 181:5875-5884), The DNase II-deficient mice on a C57BL/6 background were kindly provided by Dr. S, Nagata and obtained from the RIKEN Institute. […] and Unc93B1-deficient mice were obtained from Jackson Lab. DnaseII^−/− Ifnar1^−/− (Het), DnaseII^−/− Ifnar1−/− (DKO), and DnaseII^−/− Unc93b1^−/− (TKO), were bred at UMMS. All mice were maintained at the Department of Animal Medicine of the University of Massachusetts Medical School in accordance with the regulations of the American Association for the Accreditation of Laboratory Animal Care.
(§2) Proliferation of B220+ B cells: B cells were purified by magnetic bead separation using CD45R/B220-conjugated magnetic particles (BD Biosciences, San Jose, Calif., USA) and stimulated as described previously (Nundel et al. (2013) J. Leukoc. Biol. 94:865-875) with 15 μg/ml goat anti-mouse IgM F(ab′)2 (Jackson ImmunoResearch), ODN1826 (CpG; Idera Pharmaceuticals), anti-DNA-mAb (Leadbetter et al. (2002) Nature 416:603-607), or DVD-Ig proteins (1 μg/ml). B cell proliferation was assessed by ^3H-thymidine (Amersham Biosciences, Piscataway, N.J., USA) incorporation at 24 hours post-stimulation. For long-term proliferation assays, B220-purified B cells were labeled with a final concentration of 2.5 μM CFSE (Life Technologies) in PBS for 2 minutes. […]

[3] = test system: Dnase2−/− Ifnar1−/− Unc93b1−/− TKO B cells; experiment: 3H-thymidine incorporation of B220-purified B cells, TKO; details: 24 hours, FIG. 10C
From the text: as §1, §2

Substance: ODN 1826 [reference compound]
- cell division (CFSE dilution) and cell death (Sytox Blue) [1]: post-proliferative cell death was not observed
- response of DKO B cells [2]: normal response
- response of TKO B cells [3]: failed to respond
